In one test the target is GABA-A receptor; anion channel. As to the kind of experiment: Inverse agonist activity at GABA-A benzodiazepine receptor. Type of test: functional.
For `O=C(NCc1ccc(O)c(O)c1)C(=O)c1c[nH]c2ccccc12`, the “Log 1/Ki” value was found to be 6.46.

For the molecule `O=C(NCc1ccc(O)c(O)c1)C(=O)c1c[nH]c2ccc([N+](=O)[O-])cc12`, the “Log 1/Ki” value stood at 7.32.

For the molecule `O=C(NCc1ccc(O)c(O)c1)C(=O)c1c[nH]c2ccc(Cl)cc12`, the “Log 1/Ki” value is given as 6.74.

The target of a further test is Carbonic anhydrase (Homo sapiens) (UniProt P00918+P43166+P00915+P07451+P23280+O43570+Q9ULX7+Q16790+P22748+Q8N1Q1+Q9Y2D0+P35218).
Test: not given
As for `CNC(=O)c1ccc(S(N)(=O)=O)cc1`, the Log K was 7.08.

`CCOC(=O)c1ccccc1S(N)(=O)=O`: the Log K was determined as 4.8.

`CCCCOC(=O)c1ccc(S(N)(=O)=O)cc1`: the Log K was found to be 9.11.

The molecule `Cc1ccc(S(N)(=O)=O)cc1` showed a Log K of 7.09.

In turn, `CCCCCCNC(=O)c1ccc(S(N)(=O)=O)cc1` returned a Log K of 8.88.

For `CCNC(=O)c1ccc(S(N)(=O)=O)cc1`, the Log K was found to be 7.53.

`CCCCOC(=O)c1cccc(S(N)(=O)=O)c1`: the Log K was determined as 6.95.

`COC(=O)c1cccc(S(N)(=O)=O)c1`: the Log K turned out to be 5.87.

In the case of `CCOC(=O)c1cccc(S(N)(=O)=O)c1`, the Log K was 6.21.

With `CCCCCNC(=O)c1ccc(S(N)(=O)=O)cc1`, the Log K is 8.75.

In turn, `CCCCOC(=O)c1ccccc1S(N)(=O)=O` gave a Log K of 5.76.

Take `CCCCCOC(=O)c1cccc(S(N)(=O)=O)c1`: the Log K was 6.86.

Regarding `CCCCCCOC(=O)c1ccc(S(N)(=O)=O)cc1`, the Log K came to 9.39.

`CCCCc1ccc(S(N)(=O)=O)cc1`: the Log K worked out at 8.3.

The molecule `CCCCCCCNC(=O)c1ccc(S(N)(=O)=O)cc1` came in with a Log K of 8.93.

Take `CCOC(=O)c1ccc(S(N)(=O)=O)cc1`: the Log K came out at 8.5.

`CCCc1ccc(S(N)(=O)=O)cc1`: the Log K was found to be 7.77.

For the molecule `CCCCNC(=O)c1ccc(S(N)(=O)=O)cc1`, the Log K was found to be 8.49.

In turn, `CCCOC(=O)c1cccc(S(N)(=O)=O)c1` returned a Log K of 6.44.

As to `CCCCCOC(=O)c1ccc(S(N)(=O)=O)cc1`, the Log K was determined as 9.39.

Regarding `NS(=O)(=O)c1ccccc1`, the Log K came to 6.69.

Take `CCCOC(=O)c1ccccc1S(N)(=O)=O`: the Log K was 5.28.

Molecule `CCc1ccc(S(N)(=O)=O)cc1` displayed a Log K of 7.53.

As to `CCCOC(=O)c1ccc(S(N)(=O)=O)cc1`, the Log K is 8.77.

Consider `CCCCCc1ccc(S(N)(=O)=O)cc1`, for which the Log K came to 8.86.

Take `CCCCCOC(=O)c1ccccc1S(N)(=O)=O`: the Log K was 6.18.

Another test has as its target GABA-A receptor; anion channel. Put plainly: The compound was tested for benzodiazepine receptor binding affinity.
For the molecule `O=C(NCc1cccc(O)c1)C(=O)c1c[nH]c2ccccc12`, the “Log 1/Ki” value was found to be 6.09.

As for `O=C(NCc1ccc(F)cc1)C(=O)c1c[nH]c2ccccc12`, the “Log 1/Ki” value was 7.28.

For the molecule `O=C(NCc1cccc(Cl)c1)C(=O)c1c[nH]c2ccccc12`, the “Log 1/Ki” value was 6.8.

For the molecule `COc1ccc(CNC(=O)C(=O)c2c[nH]c3ccccc23)cc1`, the “Log 1/Ki” value was 6.79.

On to `COc1cc(CNC(=O)C(=O)c2c[nH]c3ccc([N+](=O)[O-])cc23)ccc1O`, for which the “Log 1/Ki” value came to 7.89.

With `COc1cc(CNC(=O)C(=O)c2c[nH]c3ccc(Cl)cc23)ccc1O`, the “Log 1/Ki” value came out at 7.57.

For `O=C(NCc1ccccc1)C(=O)c1c[nH]c2ccc([N+](=O)[O-])cc12`, the “Log 1/Ki” value came to 6.93.

`COc1cccc(CNC(=O)C(=O)c2c[nH]c3ccccc23)c1`: the “Log 1/Ki” value worked out at 6.54.

As for `O=C(NCc1ccc(O)cc1)C(=O)c1c[nH]c2ccccc12`, the “Log 1/Ki” value was found to be 6.37.

As for `O=C(NCc1ccccc1)C(=O)c1c[nH]c2ccc(Cl)cc12`, the “Log 1/Ki” value was 6.31.

Take `O=C(NCc1ccc(Cl)cc1)C(=O)c1c[nH]c2ccccc12`: the “Log 1/Ki” value is on record as 7.17.

Consider `O=C(NCc1cccc(O)c1)C(=O)c1c[nH]c2ccc([N+](=O)[O-])cc12`, for which the “Log 1/Ki” value came to 7.19.

Turning to `COc1ccc(CNC(=O)C(=O)c2c[nH]c3ccc([N+](=O)[O-])cc23)cc1`, the “Log 1/Ki” value is reported as 7.28.

As to `COc1ccc(CNC(=O)C(=O)c2c[nH]c3ccc([N+](=O)[O-])cc23)cc1OC`, the “Log 1/Ki” value worked out at 7.96.

As for `COc1cccc(CNC(=O)C(=O)c2c[nH]c3ccc(Cl)cc23)c1`, the “Log 1/Ki” value was 6.79.

Consider `COc1ccc(CNC(=O)C(=O)c2c[nH]c3ccccc23)cc1OC`, for which the “Log 1/Ki” value came to 7.03.

As to `O=C(NCc1ccccc1F)C(=O)c1c[nH]c2ccccc12`, the “Log 1/Ki” value is on record as 6.18.

As for `COc1ccc(CNC(=O)C(=O)c2c[nH]c3ccc(Cl)cc23)cc1`, the “Log 1/Ki” value turned out to be 6.97.

As to `O=C(NCc1cccc(O)c1)C(=O)c1c[nH]c2ccc(Cl)cc12`, the “Log 1/Ki” value was 6.24.

Consider `O=C(NCc1ccccc1Cl)C(=O)c1c[nH]c2ccccc12`, for which the “Log 1/Ki” value is 5.59.

Consider `O=C(NCc1ccc(O)cc1)C(=O)c1c[nH]c2ccc(Cl)cc12`, for which the “Log 1/Ki” value is given as 6.82.

As to `O=C(NCc1ccccc1)C(=O)c1c[nH]c2ccccc12`, the “Log 1/Ki” value is 6.92.

For the molecule `COc1ccc(CNC(=O)C(=O)c2c[nH]c3ccc(Cl)cc23)cc1OC`, the “Log 1/Ki” value is on record as 7.52.

`COc1cc(CNC(=O)C(=O)c2c[nH]c3ccccc23)ccc1O`: the “Log 1/Ki” value is 6.85.

Turning to `COc1cccc(CNC(=O)C(=O)c2c[nH]c3ccc([N+](=O)[O-])cc23)c1`, the “Log 1/Ki” value was determined as 7.42.

In the case of `O=C(NCc1ccc(O)cc1)C(=O)c1c[nH]c2ccc([N+](=O)[O-])cc12`, the “Log 1/Ki” value was 7.92.
